Results on two molecules are retold here after patent publication US10548829B2, “Oral care compositions and methods of use” (priority 2016, dated 2020).

One experiment deals with S. gordonii/A. viscosus. As to the kind of experiment: Growth inhibition (OD610), co-culture. The class given is cell-based, S. gordonii and A. viscosus. How it is done:
Further characterization was performed on planktonic oral microbes; Streptococcus sobrinus (Cariongenic—strain-SL1[CCM 6070, CNCTC 9/89] (ATCC cat. #33478), Streptococcus gordonii (Arginolytic—strain V288 (ATCC cat. #35105), Actinomyces viscosus) as well late colonizer (Gram −), pathogenic Aggregatibacter actinomycetemcomitans. All microbes were grown in their respective culture media: Streptococcus sobrinus and Streptococcus gordonii in BHI broth (BD, cat #237500), Aggregatibacter actinomycetemcomitans in BHI broth supplemented with 0.5% Yeast Extract (BD, cat #210941) and Actinomyces viscosus in Trypticase Soy Broth (BD, cat #211768) supplemented with 0.5% Yeast Extract (BD, cat #210941). Bacteria were cultured overnight in 37° C., 5% CO2 in approximately 20 ml of the appropriate culture broth. The following day, the OD610 was determined and solutions were diluted to 0.2 for the assay.
Test samples (Naringin, Naringin:Zinc complex and Naringin+Zinc Acetate (combination)) were prepared as a 100 mM stock solution followed by 2 fold serial dilution in 100% DMSO. Triclosan (positive control) was prepared as a 10% stock in 100% EtOH and 3 fold serial dilutions were done in 100% EtOH. […]
After approximately 12-13 hours of treatment, the plate was read at 610 nm using an Envision plate reader (PerkinElmer, Waltham, Mass.). The % inhibition relative to control was determined as follows: […]

Experiment [1] deals with A. actinomycetemcomitans/S. sobrinus. As to the kind of experiment: Growth inhibition (OD610), co-culture. In kind it is cell-based, A. actinomycetemcomitans and S. sobrinus.
The test system of experiment [2] is mixed culture containing Actinomyces viscosus, Lactobacillus casei, Streptococcus oralis, Fusobacterium nucleatum and Veilonella parvula. As to the kind of experiment: Growth inhibition (OD610), mixed chemostat culture. The settings on record: for % Inhibition: Mixed species incubated in 37° C., 0.0875 mM. The class given is cell-based, A. viscosus, L. casei, S. oralis, F. nucleatum, V. parvula. As for the experimental part:
Single species of Streptococcus gordonii (S. gordonii, S.g) strain V288 (ATCC #35105), Streptococcus sobrinus (S. sobrinus, S.$) strain SL1[CCM 6070, CNCTC 9/89] (ATCC #33478), or Aggregatibacter actinomycetemcomitans were analyzed. Also, a mixed culture containing Actinomyces viscosus (A. viscosus, A.v) strain (ATCC, #43146), Lactobacillus casei (L. casei, L.c) strain (ATCC #334), Streptococcus oralis (S. oralis, S. o) strain (ATCC #35037), Fusobacterium nucleatum (F. nucleatum, F. n) strain (ATCC #10953), and Veilonella parvula (V. parvula, V. p) strain (ATCC #17745) was also analyzed for growth inhibition/toxicity activity. Bacteria were cultured overnight in approximately 20 ml of BHI broth (BD, cat #237500) or maintained in a specialized complex modified BHI II medium in a continuous culture chemostat at 37° C. respectively. The following day, the OD610 were determined and solutions diluted to an OD610 of 0.2 or 0.1 respectively for the assay.
Triclosan (positive control) was prepared as a 10% stock in 100% EtOH and 3 fold serial dilutions were performed in 100% EtOH. An appropriate amount of the diluted samples was then transferred into a 96 well clear plate such that the resulting final concentration of the test samples ranged from either a 2 mM or 4 mM (highest concentration) to 0.0078 mM or 0.0156 mM (lowest concentration respectively) in 2% DMSO in 100 μl media per well. Triclosan (TCN) ranged from 0.01% to 1.67e-6% in 1% EtOH. For Zinc acetate, in order to mimic the 2:1 molar ratio (ligand:Zinc) in the Naringin:Zinc complex, the final concentration ranged from 0.7 mM to 0.0027 mM for samples with 2 mM as the highest concentration and 1.33 mM to […] for samples with 4 mM as the highest concentration in 2% DMSO. Next, 100 μl of bacterial culture at OD610 0.2 were introduced to the wells with the test samples. The wells were thoroughly mixed and incubated at 37° C. overnight. The plates were read using an Envision plate reader (PerkinElmer, Waltham, Mass.) at 610 nm.
The IC50 for the complex, Product 5, was determined for Streptococcus gordonii (S. gordonii), Streptococcus sobrinus (S. sobrinus), Aggregatibacter actinomycetemcomitans (A. actinomycetemcomitans), and also for the mixed bacterial culture. […] Triclosan (TCN) was included as a positive control for bacterial inhibition.
Antimicrobial characterization was also performed on mixed culture solutions having at least five microbial species present. A mixed culture containing Actinomyces viscosus (A. viscosus, A.v) (ATCC, #43146), Lactobacillus casei (L. casei, L.c) (ATCC #334), Streptococcus oralis (S. oralis, S.o) (ATCC #35037), Fusobacterium nucleatum (F. nucleatum, F.n) (ATCC #10953) and Veilonella parvula (V. parvula, V.p) (ATCC #17745) was maintained in a specialized complex medium (Modified BHI II Medium) in a continuous culture chemostat at 37° C. Approximately 10 ml of the culture was removed and the OD610 was determined. The assay was performed using cultures at two concentrations; 0.03 and 0.1 at OD610. […] Triclosan (positive control) was prepared as a 10% stock in 100% EtOH and 3 fold serial dilutions were performed in 100% EtOH. […] For Zinc Acetate, in order to mimic the 2:1 ratio (ligand:Zinc) composition as in the complex, the final concentration range from 0.7 mM to 0.0027 mM in 2% DMSO was used instead.
A 100 μl of bacterial culture at chosen OD610 (0.03 or 0.1) was introduced into the wells with the test samples. The wells were thoroughly mixed and plates incubated overnight in a 37° C. incubator with or without 5% CO2. After approximately 12-13 hours of treatment, the plate was read using Envision plate reader (Serial #1040984), absorbance at 610 nm. The % inhibition relative to control was determined as described for previously described antimicrobial protocols, supra.

Setting [3] is: 0.5 mM (combination 0.5 mM total).

Structures are written as SMILES. Where two headings read alike, the source gives them in different places.

In the case of `C[C@@H]1O[C@@H](O[C@H]2[C@H](Oc3cc(O)c4c(c3)O[C@H](c3ccc(O)cc3)CC4=O)O[C@H](CO)[C@@H](O)[C@@H]2O)[C@H](O)[C@H](O)[C@H]1O` [Naringin], the inhibition (usually the change of the read-out against control, counted positive when it falls) at 500 µM was -2.39 ± 5.68% in the experiment with S. gordonii/A. viscosus (setting [3]) and 0.33 ± 3.48% in experiment [1] (setting [3]).

Turning to `CC(=O)[O-].CC(=O)[O-].[Zn+2]` [Zinc Acetate alone, Zinc (II) Acetate], the % Inhibition (as a rule, the drop in the measured response relative to a control, in per cent) is −0.74 ± 6.34% in the experiment with S. gordonii/A. viscosus (0.175 mM), 6.58 ± 5.36% in experiment [1] (0.175 mM), −1.46 ± 0.0% in experiment [2] (5% CO2 (anaerobic)) and 18.07 ± 2.65% in experiment [2] (Air (aerobic)). Also, the IC50 (commonly the concentration needed to halve the response being measured) in experiment [2] (Mixed Species (aerobic)) was “Ambiguous”; in experiment [2] (Mixed Species (anaerobic), read-out: IC50), 250 µM.
